Experimental data as given in patent US7531344B2, “Induction and stabilization of enzymatic activity in microorganisms” (Georgia State University Research Foundation, Inc., priority 2006, dated 2009).

Columns and labels:
[1] = test system: asparaginase I; assay: Effect of media composition and inducer on asparaginase I, Example 10; format: cell-based, Rhodococcus sp. DAP 96253; settings: for effect of medium additive on asparaginase I activity: maltose added to YEMEA, Cobalt 5-50 ppm with glucose or maltose; for Asparaginase I levels / ability to induce asparaginase I activity: inducer 1000 ppm
Description: (§1) In certain embodiments, activity can be referred to in terms of “units” per mass of enzyme or cells (typically based on the dry weight of the cells, e.g., units/mg cdw). A “unit” generally refers to the ability to convert a specific content of a compound to a different compound under a defined set of conditions as a function of time. In specific embodiments, 1 “unit” of nitrile hydratase activity can relate to the ability to convert 1 μmol of acrylonitrile to its corresponding amide per minute, per milligram of cells (dry weight) at a of pH 7.0 and a temperature of 30° C. Similarly, 1 unit of amidase activity can relate to the ability to convert 1 μmol of acrylamide to its corresponding acid per minute, per milligram of cells (dry weight) at a pH of 7.0 and a temperature of 30° C. Further, 1 unit of asparaginase I activity can relate to the ability to convert 1 μmol of asparagine to its corresponding acid per minute, per milligram of cells (dry weight) at a pH of 7.0 and a temperature of 30° C.
Testing was performed to evaluate the effect on asparaginase I activity based upon the inducer used. In particular, testing was performed using asparagine, glutamine, succinonitrile, and isovaleronitrile as inducers (all added at 1000 ppm each).

[2] = test system: nitrile hydratase; assay: Nitrile hydratase induction by inducers, Example 1; format: cell-based, Rhodococcus sp., strain DAP 96253; settings: for nitrile hydratase induction compared with acrylonitrile: Table 1 comparison
Description: as §1
(§2) The induction of nitrile hydratase activity and amidase activity in Rhodococcus sp., strain DAP 96253, was evaluated using multiple types of inducers (1000 ppm). Three different samples were cultured in YEMEA medium containing 10 ppm cobalt and 7.5 g/L urea and supplemented with acrylonitrile, asparagine, or glutamine. The specific nitrile hydratase activity and the specific amidase activity in each sample was evaluated, and the results are provided below in Table 1, with activities provided in units/mg cdw (cell dry weight). One unit of nitrile hydratase activity relates to the ability to convert 1 μmol of acrylonitrile to its corresponding amide per minute, per milligram of cells (dry weight) at a of pH 7.0 and a temperature of 30° C. One unit of amidase activity relates to the ability to convert 1 μmol of acrylamide to its corresponding acid per minute, per milligram of cells (dry weight) pH of 7.0 and a temperature of 30° C.

[3] = test system: amidase; assay: Amidase induction by inducers, Example 1; format: cell-based, Rhodococcus sp., strain DAP 96253; settings: for amidase activity greater than the amidase activity resulting from the use of acrylonitrile: relative to acrylonitrile induction, Table 1
Description: as §1, §2

[4] = test system: asparaginase I; assay: Asparaginase I production, Example 8; format: cell-based; settings: asparagine and glutamine 3.8 mM
Description: as §1
The induction of asparaginase I production in various nitrile hydratase producing microorganisms was evaluated. All strains were grown on YEMEA medium containing 7.5 g/L of urea and 10 ppm cobalt (provided as cobalt chloride) supplemented with asparagine (ASN), glutamine (GLN), or both asparagine and glutamine. The asparagine and glutamine were added 3.8 mM. As a comparative, enzyme production was also evaluated with supplementation was with acrylonitrile (AN), acrylamide (AMD) or acrylonitrile and acrylamide. Growth temperature was in the range of 26° C. to 30° C.

[5] = test system: acrylonitrile specific nitrile hydratase; assay: 20 liter fermentation with asparagine feed: nitrile hydratase; format: cell-based, Rhodococcus sp. DAP 96253; settings: asparagine 0.15M at 1000 μl/min from t=10 h
Protocol: (§3) Rhodococcus sp. DAP 96253 were grown using biphasic medium as the source of inoculum for a 20 liter fermentation. The supplemental addition of medium/carbohydrate (either YEMEA, dextrose or maltose) was made to the modified R2A medium, containing cottonseed hydrolysate substituted for the Proteos Peptone 3 (PP3). Asparagine (0.15M solution) was added at a continuous rate of 1000 μl/min beginning at t=10 h. At the end of the fermentation run, 159 units per milligram cell dry weight of acrylonitrile specific nitrile hydratase, 22 units of amidase per milligram cell dry weight, and 16 g/l cell packed wet weight were produced.

[6] = test system: amidase; assay: 20 liter fermentation with asparagine feed: amidase; format: cell-based, Rhodococcus sp. DAP 96253; settings: asparagine 0.15M at 1000 μl/min from t=10 h
Protocol: as §3

[7] = test system: asparaginase I; assay: 20 liter fermentation with asparagine feed: asparaginase I; format: cell-based, Rhodococcus sp. DAP 96253; settings: asparagine 0.15M at 1000 μl/min from t=10 h
Protocol: as §3

[8] = test system: nitrile hydratase; assay: Nitrile hydratase production, Example 7; format: cell-based; settings: Pseudomonas chloroaphis ATCC 43051; 30 °C; supplement 3.8 mM
Protocol: (§4) In certain embodiments, activity can be referred to in terms of “units” per mass of enzyme or cells (typically based on the dry weight of the cells, e.g., units/mg cdw). A “unit” generally refers to the ability to convert a specific content of a compound to a different compound under a defined set of conditions as a function of time. […] The induction of nitrile hydratase production and amidase production in various nitrile hydratase producing microorganisms was evaluated. […] The asparagine and glutamine were added 3.8 mM. As a comparative, enzyme production with no supplementation was also tested. Growth temperature was in the range of 26° C. to 30° C.

[9] = test system: amidase; assay: Amidase production, Example 7; format: cell-based; settings: Pseudomonas chloroaphis ATCC 43051; 30 °C; supplement 3.8 mM
Protocol: as §4

[10] = Rhodococcus sp. DAP 96253, YEMEA, 10 ppm cobalt, 7.5 g/L urea, inducer 1000 ppm
[11] = YEMEA - Glucose, Without Cobalt
[12] = YEMEA - Maltose, Without Cobalt

OC[C@H]1O[C@H](O[C@H]2[C@H](O)[C@@H](O)C(O)O[C@@H]2CO)[C@H](O)[C@@H](O)[C@@H]1O (mixture of isomers) [maltose]
effect of medium additive on asparaginase I activity [1]: Higher asparaginase I activity

C=CC#N [Acrylonitrile, acrylonitrile]
Nitrile Hydratase Activity [2, 10]: 162.23 Units/mg cdw
Amidase Activity [3, 10]: 7.59 Units/mg cdw
Asparaginase I Level Based on Growth Medium Supplementation ([4]; Brevibacterium ketoglutaricum ATCC 21533, 30 °C): 14.6 Units/mg cdw
Asparaginase I Level Based on Growth Medium Supplementation ([4]; Pseudomonas chloroaphis ATCC 13985, 26 °C): 2 Units/mg cdw
Asparaginase I Level Based on Growth Medium Supplementation ([4]; Rhodococcus rhodochrous DAP 96622 (ATCC 55898), 26 °C): 8.2 Units/mg cdw
Asparaginase I Level Based on Growth Medium Supplementation ([4]; Rhodococcus sp. DAP 96253 (ATCC 55899), 30 °C): 7.8 Units/mg cdw

NC(=O)C[C@H](N)C(=O)O [Asparagine, asparagine]
nitrile hydratase induction compared with acrylonitrile [2]: exceeds the ability of acrylonitrile to induce such activity
amidase activity greater than the amidase activity resulting from the use of acrylonitrile [3]: approximately 74%
acrylonitrile specific nitrile hydratase produced at end of fermentation [5]: 159 units per milligram cell dry weight
amidase produced at end of fermentation [6]: 22 units per milligram cell dry weight
asparaginase I produced at end of fermentation [7]: 16 units per milligram cell dry weight
Asparaginase I levels ([1]; YEMEA - Glucose, With Cobalt): 6.5 units/mg cell dry weight
Asparaginase I levels [1, 11]: 5.3 units/mg cell dry weight
Asparaginase I levels [1, 12]: 8.7 units/mg cell dry weight

[Co] [Cobalt]
effect of medium additive on asparaginase I activity [1]: resulted in improvements

NC(=O)CC[C@H](N)C(=O)O [Glutamine, glutamine]
nitrile hydratase induction compared with acrylonitrile [2]: exceeds the ability of acrylonitrile to induce such activity
amidase activity greater than the amidase activity resulting from the use of acrylonitrile [3]: approximately 37%
Nitrile Hydratase Level Based on Growth Medium Supplementation [8]: No
Amidase Level Based on Growth Medium Supplementation [9]: No
Asparaginase I Level Based on Growth Medium Supplementation ([4]; Pseudomonas chloroaphis ATCC 43051, 30 °C): No
Asparaginase I levels ([1]; YEMEA - Glucose, With Cobalt): 1.9 units/mg cell dry weight
Asparaginase I levels [1, 11]: 1.5 units/mg cell dry weight
Asparaginase I levels ([1]; YEMEA - Maltose, With Cobalt): 8.1 units/mg cell dry weight
Asparaginase I levels [1, 12]: 9.3 units/mg cell dry weight
ability to induce asparaginase I activity [1]: showed an ability to induce asparaginase I activity

CC(C)CC#N [Isovaleronitrile, isovaleronitrile, reference compound]
Asparaginase I levels ([1]; YEMEA - Glucose, With Cobalt): 2.9 units/mg cell dry weight
Asparaginase I levels [1, 11]: 3.5 units/mg cell dry weight
Asparaginase I levels ([1]; YEMEA - Maltose, With Cobalt): 7.0 units/mg cell dry weight
Asparaginase I levels [1, 12]: 6.8 units/mg cell dry weight

N#CCCC#N [Succinonitrile, succinonitrile, reference compound]
Asparaginase I levels ([1]; YEMEA - Glucose, With Cobalt): 8.5 units/mg cell dry weight
Asparaginase I levels [1, 11]: 6.5 units/mg cell dry weight
Asparaginase I levels ([1]; YEMEA - Maltose, With Cobalt): 10.0 units/mg cell dry weight
Asparaginase I levels [1, 12]: 11.0 units/mg cell dry weight
ability to induce asparaginase I activity [1]: showed an ability to induce asparaginase I activity
